# Measurements from paper PMC9602792, “Preclinical evaluation of the epithelial sodium channel inhibitor AZD5634 and implications on human translation” (American Journal of Physiology - Lung Cellular and …, 2022).
# Columns and labels:
# sheep ENaC = assay: Ussing chamber short-circuit current (Isc) in sheep bronchial epithelial ALI cultures; type: cell-based; conditions: bronchial epithelial cells from healthy sheep, read-out: potency (IC50) on inhibition of ENaC (EC50 in Fig. 1B legend)
# Method: Normal human bronchial epithelial cell (HBEC) cultures from healthy donors were procured from MatTek Corporation (Ashland, MA), grown at an ALI on Transwell permeable supports (0.4 µm polycarbonate membrane, 12 mm insert, and Costar Corning), and used to test the in vitro potency of AZD5634. Using the same protocol, sheep ALI cultures were prepared from primary bronchial epithelial cells (native sheep tracheas were obtained from Öströö Sheep Farm, Sweden, and internally processed at AstraZeneca R&D, Gothenburg, Sweden) to validate AZD5634 potency at sheep ENaC. Experiments were performed using modified Ussing chambers containing carboxygenated Krebs solution (95% O2-5% CO2) at 37°C. Cell layers were allowed to equilibrate before being voltage-clamped at 0 mV, and then briefly clamped at 10 mV to assess transepithelial electrical resistance.
# All data are presented as means ± SE. Values of n refer to the number of cultures used in each group as appropriate. For normally distributed data, paired or unpaired Student’s t tests were used. For data that were not normally distributed, Mann–Whitney U test and Wilcoxon-matched pairs test were used. […] From these curves, pEC50 and Emax values were taken from which mean values were calculated.
# [1] = system: F508del-homozygous HBEC cultures; assay: μOCT imaging of ASL depth, MCT rate and CBF in F508del-homozygous CF HBEC cultures; type: cell-based, human; conditions: AZD5634 1 µM apical
# Method: Using previously described techniques ([2], [37]), epithelial cells were harvested from excised lung tissue derived from CF donors homozygous for F508del CFTR, expanded, and grown until confluency was attained. The cells were then seeded on 6.5-mm-diameter, 24-well Transwell permeable membrane supports coated with NIH 3T3 fibroblast unconditioned media (0.5 × 10^6 cells/filter; Corning Inc., Corning, NY) and further allowed to mature in differentiating media (PneumaCult ALI, […] Technologies, Cambridge, MA) for a minimum of 4–5 wk until fully differentiated. To stimulate fresh mucus secretion and formation of an even ASL layer, the cells were washed 48–72 h before experimentation with PneumaCult ALI media (80 µL), added apically, and then aspirated following 30–45 min incubation at 37°C. The washing process was repeated with a 15-min incubation period and the mucus layer was allowed to reestablish, after which the cells were treated with 1 µL of AZD5634 (1 µM, apical), alone and in combination with lumacaftor and ivacaftor (luma/iva; 3 µM/10 µM, basolateral). PBS (1% DMSO, apical) served as a vehicle control. […] Only passage 1 and 2 monolayers were used for these studies.
# μOCT imaging and analysis were conducted in vitro and ex vivo as detailed in previous publications ([2], [39]–[41]). […] Following imaging of HBEC cultures and of excised trachea and lungs, images were assessed to obtain quantitative measurements of mucociliary transport (MCT) rate, ASL depth, and ciliary beat frequency (CBF). MCT rates were calculated by analyzing the distance traveled by native particles in the mucus layer over time across multiple frames. […] CBF was determined by using custom code developed in Matlab (Mathworks, Natick, MA) to quantify the reflectance of beating cilia by Fourier analysis. […]
# Descriptive statistics were calculated and means compared using unpaired or paired t tests, or ANOVA, with post hoc analyses conducted for multiple comparisons where appropriate. […]
substance,measurement,setting,value
AZD5634,IC50,sheep ENaC,5.5 nM
same,ASL depth,"[1]; 6 h, luma/iva 3 µM/10 µM basolateral, absolute values",24.8 ± 3.6 µm
same,CBF,[1]; absolute value,8.6 ± 0.5 Hz
same,MCT rate,"[1]; luma/iva 3 µM/10 µM basolateral, absolute values",2.5 ± 0.5 mm/min
